{"source": "patent US10363299B2", "about": "“Compositions and methods for preventing and treating rhinovirus infections” (priority 2015, dated 2019)", "format_in_all_cases": "cell-based, human", "key": {"CD4+ T cells": {"tested_on": "CD4+ T cells", "test": "Tetramer-guided epitope mapping (TGEM): pMHCII tetramer staining of PBMC cultures stimulated with RV peptides", "conditions": "one value per subject", "text": "(§1) Peptide libraries consisting of 20mers with a 12 amino acid overlap were generated to span the VP1, VP2 and VP4 protein sequences of RV-A16, and VP1 and VP2 protein sequences of RV-A39 (UniprotKB accession # Q82122, Q5XLP5). […] Biologically relevant pMHCII complexes were identified by tetramer-guided epitope mapping (TGEM). This involved 2 steps: First, PBMC cultures established from subjects with known HLA-DR types were stimulated with RV peptide pools derived from VP1, VP2, or VP4, and then stained with pMHCII tetramer pools composed of HLA-DR molecules corresponding to those expressed in the test subject; Second, positive signals were de-convoluted by repeating and staining with single-peptide tetramers. Tetramers that gave strong positive signals (˜1% of total CD4+ T cells) in the single peptide-tetramer screen in more than one subject, were then re-tested for their ability to detect RV-specific CD4+ T cells in non-stimulated PBMCs (denoted as ex vivo analysis) in multiple subjects.\n(§2) All experiments were performed in subjects expressing HLA-DR molecules corresponding to the selected tetramer. Precursor frequencies of circulating tetramer+ cells were then calculated by established methods. Tetramer+ cells were phenotyped for surface markers by staining PBMCs with PE-conjugated tetramers, labeling with anti-PE magnetic beads, enriching with an AutoMACS separator (Miltenyi Biotec, Auburn, Calif., USA), and then counterstaining for surface markers. A tetramer displaying an irrelevant peptide, GAD555-567, was used as a staining control. For simplicity, identified RV-A16 peptide epitopes were given a numerical designation."}, "RV-specific CD4+ T cells [1]": {"tested_on": "RV-specific CD4+ T cells", "test": "Direct ex vivo pMHCII tetramer staining of non-stimulated PBMCs", "parameters": "key to Validated: Y means validated", "conditions": "for Ex Vivo Frequency (# per 10^6 CD4): directly ex vivo, without culture, one value per subject", "text": "as §1, §2"}, "RV-specific CD4+ T cells [2]": {"tested_on": "RV-specific CD4+ T cells", "test": "Assay to assess T-cell cross-reactivity (14-day peptide stimulation of PBMCs, tetramer and cytokine staining)", "conditions": "PBMCs from HLA-DR*0401+ subjects stimulated 14 days", "procedure": "RV-specific CD4+ T cells were expanded in vitro using established methods. Briefly, PBMCs from HLA-DRB 1*0401+ subjects were stimulated with RV-A39 VP2169-188, or else unstimulated, for 14 days. Supplemental IL-2 (10 U/ml) was given days 7-14. Cells were then stained with RV tetramers and re-stimulated with PMA and ionomycin in the presence of Brefeldin A before staining for intracellular cytokines. Cells were analyzed on a BD LSR Fortessa (UVA Flow Cytometry Core Facility) and data analysis was performed using FlowJo version 9.3.3 (Tree Star Inc., Ashland, Oreg.). Analysis and presentation of distributions was performed using SPICE version 5.3, downloaded from a National Institutes of Health website."}, "[3]": {"conditions": "HLA allele 1*0101 tetramer, tetramer-positive CD4+ T cells in peptide-stimulated PBMC cultures"}, "[4]": {"conditions": "HLA allele DRB5 tetramer, peptide-stimulated PBMC cultures"}, "[5]": {"conditions": "HLA allele 1*0101 tetramer, reliable ex vivo signal (tetramer+ cells ≥2 per million CD4+ T cells in ≥3 subjects)"}, "[6]": {"conditions": "HLA allele 1*0701 tetramer, peptide-stimulated PBMC cultures"}, "[7]": {"conditions": "HLA allele 1*1501 tetramer, peptide-stimulated PBMC cultures"}, "[8]": {"conditions": "HLA allele 1*0701 tetramer, reliable ex vivo signal"}, "[9]": {"conditions": "HLA allele 1*1101 tetramer, peptide-stimulated PBMC cultures"}, "[10]": {"conditions": "HLA allele 1*0401 tetramer, peptide-stimulated PBMC cultures"}, "[11]": {"conditions": "HLA allele DRB5 tetramer, reliable ex vivo signal"}, "[12]": {"conditions": "HLA allele 1*0404 tetramer, peptide-stimulated PBMC cultures"}}, "note": "Where “and” joins values, the source holds several entries; their conditions need not be identical. Equal values may be shown once.", "data": [{"sequence": "PHQFINLRSNNSATLIVPYV [VP2P24]", "values": [{"measurement": "In Vitro Frequency (% CD4)", "setting": "CD4+ T cells; [3]", "result": "2.82 % CD4 and 3.17 % CD4 and 11.3 % CD4"}, {"measurement": "In Vitro Frequency (% CD4)", "setting": "CD4+ T cells; [4]", "result": "0 % CD4 (2×) and 0.67 % CD4"}, {"measurement": "Ex Vivo Frequency (# per 10^6 CD4)", "setting": "RV-specific CD4+ T cells [1]; HLA allele 1*0101 tetramer", "result": "17 # per 10^6 CD4 and 148 # per 10^6 CD4 and 26 # per 10^6 CD4"}, {"measurement": "Validated", "setting": "RV-specific CD4+ T cells [1]; [5]", "result": "Y"}]}, {"sequence": "PRFSLPFLSIASAYYMFYDG [VP1P23]", "values": [{"measurement": "In Vitro Frequency (% CD4)", "setting": "CD4+ T cells; [3]", "result": "8.37 % CD4 and 0.35 % CD4 and 2.37 % CD4"}, {"measurement": "In Vitro Frequency (% CD4)", "setting": "CD4+ T cells; [6]", "result": "1.84 % CD4 and 0.74 % CD4"}, {"measurement": "In Vitro Frequency (% CD4)", "setting": "CD4+ T cells; [7]", "result": "0.28 % CD4 and 0.78 % CD4 and 0 % CD4"}, {"measurement": "In Vitro Frequency (% CD4)", "setting": "CD4+ T cells; [4]", "result": "2.03 % CD4 and 2.90 % CD4"}, {"measurement": "Ex Vivo Frequency (# per 10^6 CD4)", "setting": "RV-specific CD4+ T cells [1]; HLA allele 1*0101 tetramer", "result": "3 # per 10^6 CD4 and 8 # per 10^6 CD4 and 13 # per 10^6 CD4 and 2 # per 10^6 CD4"}, {"measurement": "Validated", "setting": "RV-specific CD4+ T cells [1]; [5]", "result": "Y"}, {"measurement": "Ex Vivo Frequency (# per 10^6 CD4)", "setting": "RV-specific CD4+ T cells [1]; HLA allele 1*0701 tetramer", "result": "3 # per 10^6 CD4 and 8 # per 10^6 CD4 and 13 # per 10^6 CD4 and 2 # per 10^6 CD4"}, {"measurement": "Validated", "setting": "RV-specific CD4+ T cells [1]; [8]", "result": "Y"}, {"measurement": "Ex Vivo Frequency (# per 10^6 CD4)", "setting": "RV-specific CD4+ T cells [1]; HLA allele DRB5 tetramer", "result": "11 # per 10^6 CD4"}]}, {"sequence": "PSVEACGYSDRIIQITRGDS [VP2P1]", "values": [{"measurement": "In Vitro Frequency (% CD4)", "setting": "CD4+ T cells; [9]", "result": "1.59 % CD4 and 1.16 % CD4 and 0.66 % CD4"}]}, {"sequence": "QIRRKFEMFTYARFDSEITM [VP1P14]", "values": [{"measurement": "In Vitro Frequency (% CD4)", "setting": "CD4+ T cells; [10]", "result": "0.59 % CD4 and 0.96 % CD4"}, {"measurement": "Ex Vivo Frequency (# per 10^6 CD4)", "setting": "RV-specific CD4+ T cells [1]; HLA allele 1*0401 tetramer", "result": "4 # per 10^6 CD4"}]}, {"sequence": "QSGTNASVFWQHGQPFPRFS [VP1P21]", "values": [{"measurement": "In Vitro Frequency (% CD4)", "setting": "CD4+ T cells; [4]", "result": "3.91 % CD4 and 0.95 % CD4"}, {"measurement": "Ex Vivo Frequency (# per 10^6 CD4)", "setting": "RV-specific CD4+ T cells [1]; HLA allele DRB5 tetramer", "result": "11 # per 10^6 CD4 and 28 # per 10^6 CD4 and 20 # per 10^6 CD4"}, {"measurement": "Validated", "setting": "RV-specific CD4+ T cells [1]; [11]", "result": "Y"}]}, {"sequence": "RGDSTITSQDVANAVVGYGV [VP2P3]", "values": [{"measurement": "In Vitro Frequency (% CD4)", "setting": "CD4+ T cells; [12]", "result": "6.86 % CD4 and 1.61 % CD4"}, {"measurement": "Ex Vivo Frequency (# per 10^6 CD4)", "setting": "RV-specific CD4+ T cells [1]; HLA allele 1*0404 tetramer", "result": "36 # per 10^6 CD4 and 1 # per 10^6 CD4 and 38 # per 10^6 CD4 and 5 # per 10^6 CD4"}, {"measurement": "Validated", "setting": "RV-specific CD4+ T cells [1]; HLA allele 1*0404 tetramer, reliable ex vivo signal", "result": "Y"}]}, {"sequence": "RPPRAVQYSHTHTTNYKLSS [VP1P32]", "values": [{"measurement": "In Vitro Frequency (% CD4)", "setting": "CD4+ T cells; [6]", "result": "0.53 % CD4 and 0 % CD4"}]}, {"sequence": "SDDNWLNFDGTLLGNLLIFP [RV-A39 VP2169-188]", "values": [{"measurement": "cytokine profile of expanded RV-specific T cells", "setting": "RV-specific CD4+ T cells [2]; PMA/ionomycin re-stimulation", "result": "a major IFN-γ+IL-4neg population, and minor populations expressing IL-17A and IL-21"}, {"measurement": "expansion of tetramer-positive RV-specific CD4+ T cells after peptide stimulation", "setting": "RV-specific CD4+ T cells [2]; RV-A16 and RV-A39 VP2 tetramers", "result": "induced expansion of both RV-A16- and RV-A39-specific T-cells"}]}, {"sequence": "SDRIIQITRGDSTITSQDVA [VP2P2]", "values": [{"measurement": "In Vitro Frequency (% CD4)", "setting": "CD4+ T cells; [9]", "result": "2.18 % CD4 and 1.22 % CD4 and 2.28 % CD4"}, {"measurement": "Ex Vivo Frequency (# per 10^6 CD4)", "setting": "RV-specific CD4+ T cells [1]; HLA allele 1*1101 tetramer", "result": "8 # per 10^6 CD4 and 11 # per 10^6 CD4 and 15 # per 10^6 CD4"}, {"measurement": "Validated", "setting": "RV-specific CD4+ T cells [1]; HLA allele 1*1101 tetramer, reliable ex vivo signal", "result": "Y"}]}, {"sequence": "SIASAYYMFYDGYDGDTYKS [VP1P24]", "values": [{"measurement": "In Vitro Frequency (% CD4)", "setting": "CD4+ T cells; [7]", "result": "0.31 % CD4 and 0 % CD4 (2×)"}]}, {"sequence": "SNNSATLIVPYVNAVPMDSM [VP2P25]", "values": [{"measurement": "In Vitro Frequency (% CD4)", "setting": "CD4+ T cells; [10]", "result": "0 % CD4 and 0.46 % CD4"}, {"measurement": "In Vitro Frequency (% CD4)", "setting": "CD4+ T cells; [7]", "result": "2.26 % CD4 and 9.02 % CD4"}, {"measurement": "Ex Vivo Frequency (# per 10^6 CD4)", "setting": "RV-specific CD4+ T cells [1]; HLA allele 1*1501 tetramer", "result": "31 # per 10^6 CD4 and 5 # per 10^6 CD4 and 13 # per 10^6 CD4 and 71 # per 10^6 CD4"}, {"measurement": "Validated", "setting": "RV-specific CD4+ T cells [1]; HLA allele 1*1501 tetramer, reliable ex vivo signal", "result": "Y"}]}, {"sequence": "TSKGWWWKLPDALKDMGIFG [VP2P10]", "values": [{"measurement": "In Vitro Frequency (% CD4)", "setting": "CD4+ T cells; [4]", "result": "3.93 % CD4 and 4.49 % CD4 and 0.38 % CD4"}, {"measurement": "Ex Vivo Frequency (# per 10^6 CD4)", "setting": "RV-specific CD4+ T cells [1]; HLA allele DRB5 tetramer", "result": "60 # per 10^6 CD4 and 24 # per 10^6 CD4 and 136 # per 10^6 CD4"}, {"measurement": "Validated", "setting": "RV-specific CD4+ T cells [1]; [11]", "result": "Y"}]}, {"sequence": "TSSNRFYTLDSKMWNSTSKG [VP2P8]", "values": [{"measurement": "In Vitro Frequency (% CD4)", "setting": "CD4+ T cells; [12]", "result": "0.77 % CD4 and 1.82 % CD4"}, {"measurement": "In Vitro Frequency (% CD4)", "setting": "CD4+ T cells; [9]", "result": "0 % CD4 (2×) and 0.26 % CD4"}, {"measurement": "Ex Vivo Frequency (# per 10^6 CD4)", "setting": "RV-specific CD4+ T cells [1]; HLA allele 1*0404 tetramer", "result": "2 # per 10^6 CD4"}]}, {"sequence": "TTRNDYAWQSGTNASVFWQH [VP1P20]", "values": [{"measurement": "In Vitro Frequency (% CD4)", "setting": "CD4+ T cells; [3]", "result": "18.7 % CD4 and 0 % CD4 (2×)"}]}, {"sequence": "VPYVNAVPMDSMVRHNNWSL [VP2P26]", "values": [{"measurement": "In Vitro Frequency (% CD4)", "setting": "CD4+ T cells; [6]", "result": "1.57 % CD4 and 0.84 % CD4"}, {"measurement": "Ex Vivo Frequency (# per 10^6 CD4)", "setting": "RV-specific CD4+ T cells [1]; HLA allele 1*0701 tetramer", "result": "4 # per 10^6 CD4 and 16 # per 10^6 CD4 and 14 # per 10^6 CD4 and 5 # per 10^6 CD4"}, {"measurement": "Validated", "setting": "RV-specific CD4+ T cells [1]; [8]", "result": "Y"}]}, {"sequence": "VVTNDMGTLCSRIVTSEQLH [VP1P27]", "values": [{"measurement": "In Vitro Frequency (% CD4)", "setting": "CD4+ T cells; [6]", "result": "0 % CD4 and 0.13 % CD4"}]}]}
